{"source": "patent US20240197666A1", "about": "“DITERPENOID COMPOUNDS THAT ACT ON PROTEIN KINASE C (PKC)” (K-Gen Therapeutics, Inc., priority 2021, published 2024)", "key": {"[1]": {"system": "HL-60 (Leukemia)", "assay": "Proliferation of HL-60", "format": "cell-based", "details": "for IC50: Homo sapiens, HL-60, read-out: IC50 HL-60 (Leukemia)"}, "[2]": {"target": "T1, C1b domain of human PKCε (Homo sapiens, UniProt Q02156)", "T1 construct": "Genes encoding C1b domains of human PKCα, δ, ε, θ, and PKD1 (PKCμ) were synthesized; made in house; host or cells: E. coli BL21(DE3)", "T1 sequence (Q02156 242-292 limits assumed)": "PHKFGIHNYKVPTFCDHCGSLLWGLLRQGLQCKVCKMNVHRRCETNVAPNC", "assay": "biochemical", "format": "binding", "details": "3H-PDBu competition", "how_it_was_run": "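Binding is reported as Ki, derived from IC50 using Cheng-Prusoff with the experimentally determined 3H-PDBu Kd of each protein preparation. Tracer displacement from recombinant human GST-C1b (E. coli BL21(DE3)) was read by filter scintillation after 10 min at 37° C plus 20 min on ice.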"}, "[3]": {"system": "A549 cell line", "assay": "Proliferation of A549 (CellTiter Glo)", "format": "cell-based", "details": "Homo sapiens, A549, 96 h, read-out: IC50 μM (A549 Cell Line)", "how_it_was_run": "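Compound effect on proliferation was read as CellTiter Glo luminescence after 96 h exposure to a 3-fold dilution series (≤0.25% DMSO). A549 cells, which carry activating K-Ras, were plated at 1,000/well one day before dosing. IC50, relative IC50 and maximal inhibition were fitted from % inhibition versus DMSO control.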"}, "[4]": {"system": "Mino (Lymphoma)", "assay": "Proliferation of Mino", "format": "cell-based", "details": "for IC50: Homo sapiens, MINO, read-out: IC50 Mino (Lymphoma)", "how_it_was_run": "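Luminescent ATP read-out (CellTiter Glo) after 96 h compound exposure gave % inhibition relative to DMSO-treated cells, from which IC50 was fitted. Seeding densities were line-specific, from 800 to 10000 cells/well. Potency across batches was normalised to reference compound K101.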"}}, "data": [{"compound": "CC1=C[C@H]2[C@@]3(O)[C@H](C)C[C@]4(OC(=O)[C@@H](N)CC5CCCCC5)[C@H]([C@@H]3C=C(CO)C[C@]2(O)C1=O)C4(C)C", "values": [{"measurement": "ratio (IC50 of K101)/(IC50 of compound) HL-60", "setting": "[1]", "value": 2.32}, {"measurement": "IC50", "setting": "[1]", "value": "30 to 60", "unit": "nM"}, {"measurement": "Ki", "setting": "[2]", "value": "10 to 30", "unit": "nM"}, {"measurement": "IC50", "setting": "[3]", "value": "0.06 to 0.1", "unit": "µM"}, {"measurement": "ratio (IC50 of K101)/(IC50 of compound) Mino", "setting": "[4]", "value": 7.33}, {"measurement": "IC50", "setting": "[4]", "value": "1 to 10", "unit": "nM"}]}, {"compound": "CC1=C[C@H]2[C@@]3(O)[C@H](C)C[C@]4(OC(=O)[C@@H](N)C5Cc6ccccc6C5)[C@H]([C@@H]3C=C(CO)C[C@]2(O)C1=O)C4(C)C", "values": [{"measurement": "ratio (IC50 of K101)/(IC50 of compound) HL-60", "setting": "[1]", "value": 1.79}, {"measurement": "IC50", "setting": "[1]", "value": "30 to 60", "unit": "nM"}, {"measurement": "Ki", "setting": "[2]", "value": "10 to 30", "unit": "nM"}, {"measurement": "IC50", "setting": "[3]", "value": "0.06 to 0.1", "unit": "µM"}, {"measurement": "ratio (IC50 of K101)/(IC50 of compound) Mino", "setting": "[4]", "value": 5.5}, {"measurement": "IC50", "setting": "[4]", "value": "10 to 30", "unit": "nM"}]}]}
